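Cells were grown in 96-well plates and exposed to each compound for 48 hours at five concentrations; endpoints were interpolated linearly between bracketing concentrations, or set to the highest concentration if not reached. GI50 marks 50% less growth.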 Active and inactive are the calls of the source. No stated cut-off is given here; in the data, active = GI50 up to about 1.1 µM and inactive = higher.
Tests used:
Test in all cases: NCI-60 cell line screen, 48 h
CCRF-CEM = test system: CCRF-CEM
IGROV-1 = test system: IGROV-1
SK-MEL-5 = test system: SK-MEL-5
786-0 = test system: 786-0
RXF 393 = test system: RXF 393
NCI/ADR-RES = test system: NCI/ADR-RES
U-251 = test system: U-251
M14 = test system: M14
K562 = test system: K562
OVCAR-5 = test system: OVCAR-5
SK-MEL-28 = test system: SK-MEL-28
CAKI-1 = test system: CAKI-1
SF-295 = test system: SF-295
HCC 2998 = test system: HCC 2998
OVCAR-3 = test system: OVCAR-3
NCI-H460 = test system: NCI-H460
SF-268 = test system: SF-268
HT-29 = test system: HT-29
NCI-H23 = test system: NCI-H23
UO-31 = test system: UO-31
SK-OV-3 = test system: SK-OV-3
COLO 205 = test system: COLO 205
PC-3 = test system: PC-3
SF-539 = test system: SF-539
HL-60 = test system: HL-60
MDA-MB-435 = test system: MDA-MB-435
OVCAR-8 = test system: OVCAR-8
BT-549 = test system: BT-549
HCT-15 = test system: HCT-15
SNB-75 = test system: SNB-75
UACC-257 = test system: UACC-257
A549 = test system: A549
MOLT-4 = test system: MOLT-4
MCF7 = test system: MCF7
NCI-H226 = test system: NCI-H226
TK-10 = test system: TK-10
SK-MEL-2 = test system: SK-MEL-2
LOX IMVI = test system: LOX IMVI
MDA-N = test system: MDA-N
NCI-H522 = test system: NCI-H522
UACC-62 = test system: UACC-62
DU-145 = test system: DU-145
SR = test system: SR
Hs-578T = test system: Hs-578T
SNB-19 = test system: SNB-19
KM12 = test system: KM12
SW-620 = test system: SW-620
EKVX = test system: EKVX
ACHN = test system: ACHN
RPMI-8226 = test system: RPMI-8226
HCT-116 = test system: HCT-116
A498 = test system: A498
OVCAR-4 = test system: OVCAR-4
HOP-62 = test system: HOP-62
T47D = test system: T47D
HOP-92 = test system: HOP-92
SN12C = test system: SN12C
Malme-3M = test system: Malme-3M

SMILES: Cn1c2ccccc2n2c3ccccc3c(=S)c(C#N)c12
- GI50 (CCRF-CEM): > 100 µM (inactive)
- GI50 (IGROV-1): > 100 µM (inactive)
- GI50 (SK-MEL-5): > 100 µM (inactive)
- GI50 (786-0): 92.3 µM (inactive)
- GI50 (RXF 393): > 100 µM (inactive)
- GI50 (NCI/ADR-RES): > 100 µM (inactive)
- GI50 (U-251): > 100 µM (inactive)
- GI50 (M14): > 100 µM (inactive)
- GI50 (K562): > 100 µM (inactive)
- GI50 (OVCAR-5): > 100 µM (inactive)
- GI50 (SK-MEL-28): > 100 µM (inactive)
- GI50 (CAKI-1): > 100 µM (inactive)
- GI50 (SF-295): > 100 µM (inactive)
- GI50 (HCC 2998): > 100 µM (inactive)
- GI50 (OVCAR-3): > 100 µM (inactive)
- GI50 (NCI-H460): > 100 µM (inactive)
- GI50 (SF-268): > 100 µM (inactive)
- GI50 (HT-29): > 100 µM (inactive)
- GI50 (NCI-H23): > 100 µM (inactive)
- GI50 (UO-31): > 100 µM (inactive)
- GI50 (SK-OV-3): > 100 µM (inactive)
- GI50 (COLO 205): > 10 µM (inactive)
- GI50 (PC-3): > 100 µM (inactive)
- GI50 (SF-539): > 100 µM (inactive)
- GI50 (HL-60): > 100 µM (inactive)
- GI50 (MDA-MB-435): > 100 µM (inactive)
- GI50 (OVCAR-8): > 100 µM (inactive)
- GI50 (BT-549): > 100 µM (inactive)
- GI50 (HCT-15): > 100 µM
- GI50 (SNB-75): > 100 µM (inactive)
- GI50 (UACC-257): > 100 µM (inactive)
- GI50 (A549): > 100 µM (inactive)
- GI50 (MOLT-4): > 100 µM (inactive)
- GI50 (MCF7): > 100 µM (inactive)
- GI50 (NCI-H226): > 100 µM (inactive)
- GI50 (TK-10): > 100 µM (inactive)
- GI50 (SK-MEL-2): > 100 µM (inactive)
- GI50 (LOX IMVI): > 100 µM (inactive)
- GI50 (MDA-N): > 100 µM (inactive)
- GI50 (NCI-H522): > 100 µM (inactive)
- GI50 (UACC-62): > 100 µM (inactive)
- GI50 (DU-145): > 100 µM (inactive)
- GI50 (SR): > 100 µM (inactive)
- GI50 (Hs-578T): > 100 µM (inactive)
- GI50 (SNB-19): > 100 µM (inactive)
- GI50 (KM12): > 100 µM (inactive)
- GI50 (SW-620): > 100 µM (inactive)
- GI50 (EKVX): > 100 µM (inactive)
- GI50 (ACHN): > 100 µM (inactive)
- GI50 (RPMI-8226): > 100 µM (inactive)
- GI50 (HCT-116): > 100 µM (inactive)
- GI50 (A498): > 100 µM (inactive)
- GI50 (OVCAR-4): > 100 µM (inactive)
- GI50 (HOP-62): 53.1 µM (inactive)
- GI50 (T47D): > 10 µM (inactive)

SMILES: CCc1c(CN)c(CC)c(CNC2=NCCN2)c(CC)c1CNC1=NCCN1
- GI50 (CCRF-CEM): > 100 µM (inactive)
- GI50 (IGROV-1): > 100 µM (inactive)
- GI50 (SK-MEL-5): > 100 µM (inactive)
- GI50 (786-0): > 100 µM (inactive)
- GI50 (RXF 393): > 100 µM (inactive)
- GI50 (NCI/ADR-RES): > 100 µM (inactive)
- GI50 (U-251): > 100 µM (inactive)
- GI50 (M14): > 100 µM (inactive)
- GI50 (K562): > 100 µM (inactive)
- GI50 (OVCAR-5): > 100 µM (inactive)
- GI50 (SK-MEL-28): > 100 µM (inactive)
- GI50 (CAKI-1): > 100 µM (inactive)
- GI50 (SF-295): > 100 µM (inactive)
- GI50 (HCC 2998): > 100 µM (inactive)
- GI50 (OVCAR-3): > 100 µM (inactive)
- GI50 (NCI-H460): > 100 µM (inactive)
- GI50 (SF-268): > 100 µM (inactive)
- GI50 (HT-29): > 100 µM (inactive)
- GI50 (HOP-92): > 100 µM (inactive)
- GI50 (NCI-H23): > 100 µM (inactive)
- GI50 (UO-31): > 100 µM (inactive)
- GI50 (SK-OV-3): > 100 µM (inactive)
- GI50 (COLO 205): > 100 µM (inactive)
- GI50 (PC-3): > 100 µM (inactive)
- GI50 (SN12C): > 100 µM (inactive)
- GI50 (SF-539): > 100 µM (inactive)
- GI50 (MDA-MB-435): > 100 µM (inactive)
- GI50 (OVCAR-8): > 100 µM (inactive)
- GI50 (BT-549): > 100 µM (inactive)
- GI50 (HCT-15): > 100 µM
- GI50 (SNB-75): > 100 µM (inactive)
- GI50 (UACC-257): > 100 µM (inactive)
- GI50 (A549): > 100 µM (inactive)
- GI50 (MOLT-4): > 100 µM (inactive)
- GI50 (Malme-3M): > 100 µM (inactive)
- GI50 (MCF7): > 100 µM (inactive)
- GI50 (NCI-H226): > 100 µM (inactive)
- GI50 (TK-10): > 100 µM (inactive)
- GI50 (SK-MEL-2): > 100 µM (inactive)
- GI50 (MDA-N): > 100 µM (inactive)
- GI50 (NCI-H522): > 100 µM (inactive)
- GI50 (UACC-62): > 100 µM (inactive)
- GI50 (DU-145): > 100 µM (inactive)
- GI50 (SR): > 100 µM (inactive)
- GI50 (Hs-578T): > 100 µM (inactive)
- GI50 (SNB-19): > 100 µM (inactive)
- GI50 (KM12): > 100 µM (inactive)
- GI50 (SW-620): > 100 µM (inactive)
- GI50 (EKVX): > 100 µM (inactive)
- GI50 (ACHN): > 100 µM (inactive)
- GI50 (RPMI-8226): > 100 µM (inactive)
- GI50 (HCT-116): > 100 µM (inactive)
- GI50 (A498): > 100 µM (inactive)
- GI50 (OVCAR-4): > 100 µM (inactive)
- GI50 (HOP-62): > 100 µM (inactive)
- GI50 (T47D): > 100 µM (inactive)

From ChEMBL document CHEMBL1201862, “PubChem BioAssay data set” (2004)
